# Measurements as given in ChEMBL document CHEMBL4196010, “New hydrazides derivatives of isoniazid against Mycobacterium tuberculosis: Higher potency and lower hepatocytotoxicity” (Eur J Med Chem, 2018).
# How the values were obtained:
# [1] = system: Mycobacterium tuberculosis; assay: Antitubercular activity against Mycobacterium tuberculosis H37Rv ATCC 27294 after 5 days by microplate alamar blue assay; type: functional; details: H37Rv ATCC 27294, 120 h
# [2] = system: Mycobacterium tuberculosis; assay: Potency index, ratio of ethambutol MIC to compound MIC for antitubercular activity against Mycobacterium tuberculosis H37Rv ATCC 27294; type: functional
# [3] = Selectivity index, ratio of LC50 for human HepG2 cells to MIC for Mycobacterium tuberculosis H37Rv ATCC 27294; type: toxicity; details: read-out: Selectivity Index
# Salmonella typhimurium [4] = assay: Genotoxicity in Salmonella typhimurium TA100 assessed as increase in revertant colonies at 5 uM preincubated for 20 mins followed by addition of top agar and minimal agar and measured after 72 hrs in presence of S9 metabolic activation system by Ames test relative to control; type: toxicity, organism-based; details: salmonella enterica subsp. enterica serovar typhimurium
# Salmonella typhimurium [5] = assay: Genotoxicity in Salmonella typhimurium TA98 assessed as increase in revertant colonies at 5000 uM preincubated for 20 mins followed by addition of top agar and minimal agar and measured after 72 hrs in absence of S9 metabolic activation system by Ames test relative to control; type: toxicity, organism-based; details: salmonella enterica subsp. enterica serovar typhimurium
# J774.A1 [6] = assay: Cytotoxicity against mouse J774A.1 cells assessed as decrease in cell viability at 10 nM after 20 hrs by resazurin dye-based fluorimetric method; details: j774.a1, 20 h, 0.01 µM
# J774.A1 [7] = assay: Cytotoxicity against mouse J774A.1 cells assessed as decrease in cell viability at 10 uM after 20 hrs by resazurin dye-based fluorimetric method; details: j774.a1, 20 h
# Salmonella typhimurium [8] = assay: Genotoxicity in Salmonella typhimurium TA98 assessed as increase in revertant colonies at 50 uM preincubated for 20 mins followed by addition of top agar and minimal agar and measured after 72 hrs in absence of S9 metabolic activation system by Ames test relative to control; type: toxicity, organism-based; details: salmonella enterica subsp. enterica serovar typhimurium
# Salmonella typhimurium [9] = assay: Genotoxicity in Salmonella typhimurium TA98 assessed as increase in revertant colonies at 5 uM preincubated for 20 mins followed by addition of top agar and minimal agar and measured after 72 hrs in presence of S9 metabolic activation system by Ames test relative to control; type: toxicity, organism-based; details: salmonella enterica subsp. enterica serovar typhimurium
# Salmonella typhimurium [10] = assay: Genotoxicity in Salmonella typhimurium TA98 assessed as increase in revertant colonies at 500 uM preincubated for 20 mins followed by addition of top agar and minimal agar and measured after 72 hrs in presence of S9 metabolic activation system by Ames test relative to control; type: toxicity, organism-based; details: salmonella enterica subsp. enterica serovar typhimurium
# [11] = Cytotoxicity against human HepG2 cells after 3 hrs by WST-1 assay; type: cell-based; details: read-out: LC50
# Salmonella typhimurium [12] = assay: Genotoxicity in Salmonella typhimurium TA98 assessed as increase in revertant colonies at 5000 uM preincubated for 20 mins followed by addition of top agar and minimal agar and measured after 72 hrs in presence of S9 metabolic activation system by Ames test relative to control; type: toxicity, organism-based; details: salmonella enterica subsp. enterica serovar typhimurium
# [13] = Cytotoxicity against human HepG2 cells after 24 hrs by WST-1 assay; type: cell-based; details: read-out: LC50
# Salmonella typhimurium [14] = assay: Genotoxicity in Salmonella typhimurium TA100 assessed as increase in revertant colonies at 500 uM preincubated for 20 mins followed by addition of top agar and minimal agar and measured after 72 hrs in absence of S9 metabolic activation system by Ames test relative to control; type: toxicity, organism-based; details: salmonella enterica subsp. enterica serovar typhimurium
# Salmonella typhimurium [15] = assay: Genotoxicity in Salmonella typhimurium TA100 assessed as increase in revertant colonies at 5000 uM preincubated for 20 mins followed by addition of top agar and minimal agar and measured after 72 hrs in absence of S9 metabolic activation system by Ames test relative to control; type: toxicity, organism-based; details: salmonella enterica subsp. enterica serovar typhimurium
# Salmonella typhimurium [16] = assay: Genotoxicity in Salmonella typhimurium TA100 assessed as increase in revertant colonies at 0.5 uM preincubated for 20 mins followed by addition of top agar and minimal agar and measured after 72 hrs in presence of S9 metabolic activation system by Ames test relative to control; type: toxicity, organism-based; details: salmonella enterica subsp. enterica serovar typhimurium
# Salmonella typhimurium [17] = assay: Genotoxicity in Salmonella typhimurium TA98 assessed as increase in revertant colonies at 0.5 uM preincubated for 20 mins followed by addition of top agar and minimal agar and measured after 72 hrs in presence of S9 metabolic activation system by Ames test relative to control; type: toxicity, organism-based; details: salmonella enterica subsp. enterica serovar typhimurium
# J774.A1 [18] = assay: Cytotoxicity against mouse J774A.1 cells assessed as decrease in cell viability at 1 uM after 20 hrs by resazurin dye-based fluorimetric method; details: j774.a1, 20 h
# Salmonella typhimurium [19] = assay: Genotoxicity in Salmonella typhimurium TA98 assessed as increase in revertant colonies at 5 uM preincubated for 20 mins followed by addition of top agar and minimal agar and measured after 72 hrs in absence of S9 metabolic activation system by Ames test relative to control; type: toxicity, organism-based; details: salmonella enterica subsp. enterica serovar typhimurium
# Salmonella typhimurium [20] = assay: Genotoxicity in Salmonella typhimurium TA100 assessed as increase in revertant colonies at 50 uM preincubated for 20 mins followed by addition of top agar and minimal agar and measured after 72 hrs in presence of S9 metabolic activation system by Ames test relative to control; type: toxicity, organism-based; details: salmonella enterica subsp. enterica serovar typhimurium
# Salmonella typhimurium [21] = assay: Genotoxicity in Salmonella typhimurium TA98 assessed as increase in revertant colonies at 50 uM preincubated for 20 mins followed by addition of top agar and minimal agar and measured after 72 hrs in presence of S9 metabolic activation system by Ames test relative to control; type: toxicity, organism-based; details: salmonella enterica subsp. enterica serovar typhimurium
# J774.A1 [22] = assay: Cytotoxicity against mouse J774A.1 cells assessed as decrease in cell viability at 100 uM after 20 hrs by resazurin dye-based fluorimetric method; details: j774.a1, 20 h
# Salmonella typhimurium [23] = assay: Genotoxicity in Salmonella typhimurium TA100 assessed as increase in revertant colonies at 5 uM preincubated for 20 mins followed by addition of top agar and minimal agar and measured after 72 hrs in absence of S9 metabolic activation system by Ames test relative to control; type: toxicity, organism-based; details: salmonella enterica subsp. enterica serovar typhimurium
# Salmonella typhimurium [24] = assay: Genotoxicity in Salmonella typhimurium TA98 assessed as increase in revertant colonies at 500 uM preincubated for 20 mins followed by addition of top agar and minimal agar and measured after 72 hrs in absence of S9 metabolic activation system by Ames test relative to control; type: toxicity, organism-based; details: salmonella enterica subsp. enterica serovar typhimurium
# Salmonella typhimurium [25] = assay: Genotoxicity in Salmonella typhimurium TA100 assessed as increase in revertant colonies at 50 uM preincubated for 20 mins followed by addition of top agar and minimal agar and measured after 72 hrs in absence of S9 metabolic activation system by Ames test relative to control; type: toxicity, organism-based; details: salmonella enterica subsp. enterica serovar typhimurium
# Salmonella typhimurium [26] = assay: Genotoxicity in Salmonella typhimurium TA100 assessed as increase in revertant colonies at 5000 uM preincubated for 20 mins followed by addition of top agar and minimal agar and measured after 72 hrs in presence of S9 metabolic activation system by Ames test relative to control; type: toxicity, organism-based; details: salmonella enterica subsp. enterica serovar typhimurium
# J774.A1 [27] = assay: Cytotoxicity against mouse J774A.1 cells assessed as decrease in cell viability at 100 nM after 20 hrs by resazurin dye-based fluorimetric method; details: j774.a1, 20 h, 0.1 µM
# Salmonella typhimurium [28] = assay: Genotoxicity in Salmonella typhimurium TA100 assessed as increase in revertant colonies at 0.5 uM preincubated for 20 mins followed by addition of top agar and minimal agar and measured after 72 hrs in absence of S9 metabolic activation system by Ames test relative to control; type: toxicity, organism-based; details: salmonella enterica subsp. enterica serovar typhimurium
# Salmonella typhimurium [29] = assay: Genotoxicity in Salmonella typhimurium TA100 assessed as increase in revertant colonies at 500 uM preincubated for 20 mins followed by addition of top agar and minimal agar and measured after 72 hrs in presence of S9 metabolic activation system by Ames test relative to control; type: toxicity, organism-based; details: salmonella enterica subsp. enterica serovar typhimurium
# Salmonella typhimurium [30] = assay: Genotoxicity in Salmonella typhimurium TA98 assessed as increase in revertant colonies at 0.5 uM preincubated for 20 mins followed by addition of top agar and minimal agar and measured after 72 hrs in absence of S9 metabolic activation system by Ames test relative to control; type: toxicity, organism-based; details: salmonella enterica subsp. enterica serovar typhimurium
# [31] = system: Mycobacterium tuberculosis; assay: Potency index, ratio of pyrazinamide MIC to compound MIC for antitubercular activity against Mycobacterium tuberculosis H37Rv ATCC 27294; type: functional
# J774.A1 [32] = assay: Cytotoxicity against mouse J774A.1 cells assessed as decrease in cell viability at 1 nM after 20 hrs by resazurin dye-based fluorimetric method; details: j774.a1, 20 h, 0.001 µM
smiles,measurement,setting,value
CC(=O)NNC(=O)c1ccncc1,MIC,[1],> 559 µM
CC(=O)Nc1ccc(Cl)cc1C(F)(F)C(=O)NNC(=O)c1ccncc1,MIC,[1],16.4 µM
CC(=O)Nc1ccc(C)cc1C(F)(F)C(=O)NN,MIC,[1],> 412 µM
CC(=O)Nc1ccc(C)cc1C(F)(F)C(=O)NNc1ccccc1,MIC,[1],> 300 µM
CC(=O)Nc1ccccc1C(=O)C(=O)NNC(=O)c1ccncc1,Ratio,[2],30
same,selectivity ratio,[3],67
same,fold change (FC),Salmonella typhimurium [4],1.1
same,fold change (FC),Salmonella typhimurium [5],1.3
same,Activity,J774.A1 [6],98.7%
same,Activity,J774.A1 [7],97.1%
same,fold change (FC),Salmonella typhimurium [8],1.2
same,fold change (FC),Salmonella typhimurium [9],1.1
same,fold change (FC),Salmonella typhimurium [10],2
same,CC50 at 3 h,[11],> 200 µM
same,fold change (FC),Salmonella typhimurium [12],2.5
same,CC50 at 24 h,[13],31.5 µM
same,fold change (FC),Salmonella typhimurium [14],1.3
same,fold change (FC),Salmonella typhimurium [15],1.4
same,fold change (FC),Salmonella typhimurium [16],1.1
same,fold change (FC),Salmonella typhimurium [17],1.1
same,Activity,J774.A1 [18],99.5%
same,fold change (FC),Salmonella typhimurium [19],1.1
same,fold change (FC),Salmonella typhimurium [20],1.2
same,fold change (FC),Salmonella typhimurium [21],1.6
same,Activity,J774.A1 [22],93.3%
same,fold change (FC),Salmonella typhimurium [23],1.3
same,fold change (FC),Salmonella typhimurium [24],1.3
same,fold change (FC),Salmonella typhimurium [25],1.3
same,fold change (FC),Salmonella typhimurium [26],1.3
same,MIC,[1],0.47 µM
same,Activity,J774.A1 [27],97.7%
same,fold change (FC),Salmonella typhimurium [28],1
same,fold change (FC),Salmonella typhimurium [29],1.2
same,fold change (FC),Salmonella typhimurium [30],1
same,Ratio,[31],1800
same,Activity,J774.A1 [32],99.6%
CC(=O)Nc1ccccc1C(F)(F)C(=O)NNC(=O)c1ccncc1,MIC,[1],3.59 µM
CC(=O)Nc1ccc(F)cc1C(F)(F)C(=O)NNC(=O)c1ccncc1,MIC,[1],17.1 µM
CC(=O)Nc1ccccc1C(F)(F)C(=O)NNC(=N)N,MIC,[1],> 351 µM
O=C(CCl)Nc1ccccc1C(=O)C(=O)NNC(=O)c1ccncc1,Ratio,[2],30
same,selectivity ratio,[3],256
same,Activity,J774.A1 [6],98.5%
same,Activity,J774.A1 [7],98.8%
same,CC50 at 3 h,[11],> 200 µM
same,CC50 at 24 h,[13],110 µM
same,Activity,J774.A1 [18],96.5%
same,Activity,J774.A1 [22],63.3%
same,MIC,[1],0.43 µM
same,Activity,J774.A1 [27],97.9%
same,Ratio,[31],1800
same,Activity,J774.A1 [32],99%
CC(=O)Nc1ccccc1C(F)(F)C(=O)NNc1ccccn1,MIC,[1],> 312 µM
O=C(NNC(=O)c1ccncc1)C(=O)c1ccccc1NC(=O)c1ccccc1,selectivity ratio,[3],> 25
same,Activity,J774.A1 [6],99.4%
same,Activity,J774.A1 [7],98%
same,CC50 at 3 h,[11],> 200 µM
same,CC50 at 24 h,[13],> 200 µM
same,Activity,J774.A1 [18],98.2%
same,Activity,J774.A1 [22],86.5%
same,MIC,[1],8.04 µM
same,Activity,J774.A1 [27],99.8%
same,Activity,J774.A1 [32],100%
